Some results are limits rather than exact numbers.

In this assay the target is T1, Akt3 (Homo sapiens, UniProt Q9Y243).
T1 construct: endogenous in cells; host or cells: human CD4+/CD45RA+/CD25- naive T cells under Treg induction conditions
T1 sequence (Q9Y243 whole entry): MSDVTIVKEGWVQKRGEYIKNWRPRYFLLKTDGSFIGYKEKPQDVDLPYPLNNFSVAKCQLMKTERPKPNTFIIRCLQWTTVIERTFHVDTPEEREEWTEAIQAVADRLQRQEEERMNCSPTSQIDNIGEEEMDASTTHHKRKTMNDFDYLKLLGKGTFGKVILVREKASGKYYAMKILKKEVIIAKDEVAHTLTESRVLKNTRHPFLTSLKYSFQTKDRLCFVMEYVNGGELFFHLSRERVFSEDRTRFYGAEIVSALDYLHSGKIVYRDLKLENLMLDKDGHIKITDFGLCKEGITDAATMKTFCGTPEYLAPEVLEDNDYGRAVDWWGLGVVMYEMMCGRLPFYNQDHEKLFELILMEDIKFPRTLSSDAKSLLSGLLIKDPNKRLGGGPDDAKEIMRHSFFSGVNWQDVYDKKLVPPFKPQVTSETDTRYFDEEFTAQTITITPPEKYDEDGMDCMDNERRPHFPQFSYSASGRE
The assay is described as follows: Akt3 inhibition activity. It counts as cell-based.
Take `Cc1cc(Nc2ccncc2)cc(N2Cc3cc(Nc4ccncc4)ccc3C2=O)c1` [Compound 26, 2-(3-methyl-5-(pyridin-4-ylamino)phenyl)-5-(pyridin-4-ylamino)isoindolin-1-one]: the IC50 was less than 1000 nM.
`Cc1ccc(N2Cc3cc(Nc4ccncc4)ccc3C2=O)cc1Nc1ccncc1` [Compound 27, 2-(4-methyl-3-(pyridin-4-ylamino)phenyl)-5-(pyridin-4-ylamino)isoindolin-1-one] showed an IC50 of less than 1000 nM.
As for `Cc1cc(Nc2ccncc2)cc2c1C(=O)N(c1cccc(Nc3ccncc3)c1)C2` [Compound 30, 7-methyl-5-(pyridin-4-ylamino)-2-(3-(pyridin-4-ylamino)phenyl)isoindolin-1-one], the figure is less than 1000 nM.
The value for `Cc1cc2c(cc1Nc1ccncc1)CN(c1cccc(Nc3ccncc3)c1)C2=O` [Compound 31, 6-methyl-5-(pyridin-4-ylamino)-2-(3-(pyridin-4-ylamino)phenyl)isoindolin-1-one] was less than 5000 nM; that for `O=C1c2ccc(Nc3ccncc3)c(F)c2CN1c1cccc(Nc2ccncc2)c1` [Compound 32, 4-fluoro-5-(pyridin-4-ylamino)-2-(3-(pyridin-4-ylamino)phenyl)isoindolin-1-one] was less than 5000 nM.
Compound `O=C1c2cc(F)c(Nc3ccncc3)cc2CN1c1cccc(Nc2ccncc2)c1` [Compound 33, 6-fluoro-5-(pyridin-4-ylamino)-2-(3-(pyridin-4-ylamino)phenyl)isoindolin-1-one] had an IC50 of less than 1000 nM.
The value for `O=C1c2c(F)cc(Nc3ccncc3)cc2CN1c1cccc(Nc2ccncc2)c1` [Compound 34, 7-fluoro-5-(pyridin-4-ylamino)-2-(3-(pyridin-4-ylamino)phenyl)isoindolin-1-one] was less than 5000 nM.
As for `O=C1c2ccc(Nc3ccncc3)cc2CN1c1cc(F)cc(Nc2ccncc2)c1` [Compound 37, 2-(3-fluoro-5-(pyridin-4-ylamino)phenyl)-5-(pyridin-4-ylamino)isoindolin-1-one], the figure is less than 2000 nM.
The value for `O=C1c2ccc(Nc3ccncc3)cc2CN1c1ccc(F)c(Nc2ccncc2)c1` [Compound 38, 2-(4-fluoro-3-(pyridin-4-ylamino)phenyl)-5-(pyridin-4-ylamino)isoindolin-1-one] was less than 1000 nM.
In turn, `Cc1cc(Nc2ccc(-c3nc4cc(Nc5ccnc(C)c5)ccc4o3)cc2)ccn1` [Compound 39, N-(2-methylpyridin-4-yl)-2-(4-((2-methylpyridin-4-yl)amino)phenyl)benzo[d]oxazol-5-amine] had an IC50 of less than 5000 nM.
As for `Cc1cc(Nc2cccc(-c3nc4cc(Nc5ccnc(C)c5)ccc4o3)c2)ccn1` [Compound 40, N-(2-methylpyridin-4-yl)-2-(3-((2-methylpyridin-4-yl)amino)phenyl)benzo[d]oxazol-5-amine], the figure is less than 2000 nM; as for `Cc1cc(Nc2ccc(-c3nc4ccc(Nc5ccnc(C)c5)cc4o3)cc2)ccn1` [Compound 41, N-(2-methylpyridin-4-yl)-2-(4-((2-methylpyridin-4-yl)amino)phenyl)benzo[d]oxazol-6-amine], less than 5000 nM.
As for `Cc1cc(Nc2cccc(-c3nc4ccc(Nc5ccnc(C)c5)cc4o3)c2)ccn1` [Compound 42, N-(2-methylpyridin-4-yl)-2-(3-((2-methylpyridin-4-yl)amino)phenyl)benzo[d]oxazol-6-amine], the figure is less than 5000 nM; as for `Cc1cc(Nc2ccc3oc(-c4cccc(Nc5ccc(F)cc5)c4)nc3c2)ccn1` [Compound 43, 2-(3-((4-fluorophenyl)amino)phenyl)-N-(2-methylpyridin-4-yl)benzo[d]oxazol-5-amine], less than 5000 nM.
In the case of `Cc1cc(Nc2cc(C)c3c(c2)CN(c2cccc(Nc4ccncc4)c2)C3=O)ccn1` [Compound 44, 7-methyl-5-((2-methylpyridin-4-yl)amino)-2-(3-(pyridin-4-ylamino)phenyl)isoindolin-1-one], the IC50 is less than 1000 nM.
As for `Cc1cc(Nc2cccc(N3Cc4cc(Nc5ccnc(C)c5)cc(C)c4C3=O)c2)ccn1` [Compound 45, 7-methyl-5-((2-methylpyridin-4-yl)amino)-2-(3-((2-methylpyridin-4-yl)amino)phenyl)isoindolin-1-one], the figure is less than 1000 nM.

One may read the IC50 as the concentration that inhibits the measured activity by half. A higher IC50 goes with a need for much substance.

The values above are taken from patent publication US20260159498A1, “AKT3 MODULATORS” (GEORGIAMUNE LLC, priority 2021, published 2026).
